Entries after “also recorded” stand apart in the source; their conditions may differ.
Experiments:
human NaV1.6 [1] = target: T1, human NaV1.6 (Homo sapiens, UniProt Q9UQD0); assay: ATX-II activated late (persistent) INa block, PatchXpress patch clamp; assay type: cell-based
T1 construct: stably expressing either human NaV1.6 (NP_055006); expressed in transfected cells
Description: HEK-293 cell lines stably expressing either human NaV1.6 (NP_055006), mouse NaV1.6 (NP_035453.2), or rat NaV1.6 (NP_062139) were used. All cells were seeded at 2×10^6 cells per Nunc T75 flask for 2 days in culture. At time of harvest for assays, the cell counts were approximately 6×10^6 cells. Cells were washed (1×) in DPBS (Hyclone, Cat #SH30028.03) for approximately 30 seconds. 1 mL of 1×0.05% Trypsin-EDTA (GIBCO Cat #25300-054) was added and swirled around to cover the bottom of the flask and was allowed to sit on the cells for approximately 4 minutes (±90% of the cells were lifted by light tapping of the flask). 10 mL of warmed media (DMEM high glucose media Hyclone, SH30022.02 supplemented with 10% Fetal Bovine Serum, 2 mM Sodium Pyruvate, 10 mM HEPES and 400 μg/mL G418) was added to inactivate the trypsin. Cells were triturated until a single cell suspension was achieved. A cell count was performed and cells were aliquoted into a 250 ml centrifuge tube at a concentration of 2×10^5/mL in +30 ml of prewarmed media. The 250 mL centrifuge tube was placed on a rocker in an incubator set at 28° C. and gently rocked for approximately 1 hour to allow cells to recover. Cell aliquots of 5 mL (1×10^6 cells) were placed in a 15 mL centrifuge tube and spun at 100×g for 2 minutes. Supernatant was removed leaving a cell pellet. 100 μL of external recording solution was added to the pellet and triturated 20 times to achieve a single cell suspension and then transferred to a 1.5 mL tube for placement in the PatchXpress® (Molecular Devices).
Compound 1 was provided as powder and prepared as 10 mM DMSO stocks in 1 dram glass vials prior to assay. Immediately prior to assay, Compound 1 was diluted with DMSO to 300×, the designated final assay concentration. Assay dilutions (1× concentration) were prepared by pipetting 3 μL of diluted Compound 1 into 897 μL of extracellular solution in a 1 mL glass shell vial. Vials were capped and vortexed until initiation of the PatchXpress® (Molecular Devices) recording protocol.
The same intracellular recording solution was used for the persistent and peak INa assays, which contained: 135 mM CsF, 10 mM CsCl, 5 mM NaCl, 10 mM HEPES, 5 mM EGTA at a pH of 7.4 (adjusted with CsOH) and a measured osmolarity of 298 mOsm (adjusted with mannitol). For the persistent INa assay, the external recording solution contained: 135 mM NaCl, 5.4 mM KCl, 5 mM glucose, 2 mM CaCl2), 1 mM MgCl2, 10 mM HEPES, and 200 nM ATX-II (sea anemone toxin, Alomone Labs; Jerusalem, Israel) at a pH of 7.4 (adjusted with NaOH) and a measured osmolarity of 300 mOsm (adjusted with mannitol). For the peak INa assays, the external recording solution contained: 100 mM NaCl, 35 mM NMDG, 5.4 mM KCl, 5 mM glucose, 2 mM CaCl2), 1 mM MgCl2, and 10 mM HEPES at a pH of 7.4 (adjusted with NaOH) and a measured osmolarity of 300 mOsm (adjusted with mannitol).
All studies were performed using the PatchXpress® (Molecular Devices) automated patch clamp platform (Molecular Devices) using the whole cell configuration. Recordings were performed at room temperature. Data were collected using Patch Commander software (Molecular Devices) and processed using DataXpress 2.0 (Molecular Devices). Cell acceptance criteria were continuously monitored by custom scripts during the recording. Acceptance criteria for all assays were: baseline peak INa>800 pA, Rseal>200 MΩ, and, where appropriate, persistent INa>100 pA. Compensation was 50% and leak subtraction was not used. Currents were filtered at 5 kHz and digitized at 32.5 kHz. Raccess and Rseal were monitored throughout the recording and cells with Raccess>10 MΩ or Rseal<200 MΩ were terminated automatically by script.
Late (persistent) current Block: The inhibition of ATX-II activated late current was measured using a 200 ms voltage step to 0 mV. Protocols used low stimulation rates (about 0.1 Hz) and negative potentials (−120 mV) to keep channels in closed (resting) states.

human NaV1.6 [2] = target: T1, human NaV1.6; assay: Peak INa use-dependent block (UDB-10 Hz), PatchXpress patch clamp; assay type: cell-based
hNaV1.6-N1768D = target: T2, hNaV1.6-N1768D (Homo sapiens, UniProt Q9UQD0, N1768D); assay: Persistent INa expressed by DEE mutant channel, patch clamp; assay type: cell-based; conditions: hNaV1.6-N1768D DEE mutant
T2 construct: expressed in transfected cells

male CD-1 mice = assay: Maximal electroshock induced seizure (MES) test; assay type: in vivo, mouse
Description: Food and water were available ad libitum.
VPA was prepared in saline (Vehicle 1). All solutions were protected from light. All compounds and vehicles were dosed at 10 ml/kg.
The MES test was carried out over two days with 6 of 12 mice from each treatment group being tested on each day. Mice were brought to the test room at least one hour before the start of the experiment.
A Grass S88x (Grass Technologies of Astro-Med, Inc., West Warwick, RI) Stimulus Isolation Unit (A385, WPI Inc., USA) was set to deliver a 50 mA square-wave stimulus, with a 0.8 second duration, a pulse width of 10 msec, and a frequency of 50 Hz. A pair of custom stainless steel electrodes were soaked in 0.2% Agar, and then the subject received bilateral transauricular stimulation through ear-clip electrodes. During the stimulation, mice were manually restrained. They were then released into the observation cage for convulsion observation for 60 seconds immediately after stimulation. Each mouse was observed continuously by individuals blinded to treatment conditions and results were recorded.
Anti-seizure assessment endpoints were: (1) latency of hindlimb tonic flexion; (2) latency of hindlimb tonic extension; (3) total #hindlimb tonic flexions; (4) total #hindlimb tonic extensions; (5) latency to death; and (6) mortality rate
From these fitted curves, ED50 and EC50 values were calculated.

T1 sequence (Q9UQD0 whole entry): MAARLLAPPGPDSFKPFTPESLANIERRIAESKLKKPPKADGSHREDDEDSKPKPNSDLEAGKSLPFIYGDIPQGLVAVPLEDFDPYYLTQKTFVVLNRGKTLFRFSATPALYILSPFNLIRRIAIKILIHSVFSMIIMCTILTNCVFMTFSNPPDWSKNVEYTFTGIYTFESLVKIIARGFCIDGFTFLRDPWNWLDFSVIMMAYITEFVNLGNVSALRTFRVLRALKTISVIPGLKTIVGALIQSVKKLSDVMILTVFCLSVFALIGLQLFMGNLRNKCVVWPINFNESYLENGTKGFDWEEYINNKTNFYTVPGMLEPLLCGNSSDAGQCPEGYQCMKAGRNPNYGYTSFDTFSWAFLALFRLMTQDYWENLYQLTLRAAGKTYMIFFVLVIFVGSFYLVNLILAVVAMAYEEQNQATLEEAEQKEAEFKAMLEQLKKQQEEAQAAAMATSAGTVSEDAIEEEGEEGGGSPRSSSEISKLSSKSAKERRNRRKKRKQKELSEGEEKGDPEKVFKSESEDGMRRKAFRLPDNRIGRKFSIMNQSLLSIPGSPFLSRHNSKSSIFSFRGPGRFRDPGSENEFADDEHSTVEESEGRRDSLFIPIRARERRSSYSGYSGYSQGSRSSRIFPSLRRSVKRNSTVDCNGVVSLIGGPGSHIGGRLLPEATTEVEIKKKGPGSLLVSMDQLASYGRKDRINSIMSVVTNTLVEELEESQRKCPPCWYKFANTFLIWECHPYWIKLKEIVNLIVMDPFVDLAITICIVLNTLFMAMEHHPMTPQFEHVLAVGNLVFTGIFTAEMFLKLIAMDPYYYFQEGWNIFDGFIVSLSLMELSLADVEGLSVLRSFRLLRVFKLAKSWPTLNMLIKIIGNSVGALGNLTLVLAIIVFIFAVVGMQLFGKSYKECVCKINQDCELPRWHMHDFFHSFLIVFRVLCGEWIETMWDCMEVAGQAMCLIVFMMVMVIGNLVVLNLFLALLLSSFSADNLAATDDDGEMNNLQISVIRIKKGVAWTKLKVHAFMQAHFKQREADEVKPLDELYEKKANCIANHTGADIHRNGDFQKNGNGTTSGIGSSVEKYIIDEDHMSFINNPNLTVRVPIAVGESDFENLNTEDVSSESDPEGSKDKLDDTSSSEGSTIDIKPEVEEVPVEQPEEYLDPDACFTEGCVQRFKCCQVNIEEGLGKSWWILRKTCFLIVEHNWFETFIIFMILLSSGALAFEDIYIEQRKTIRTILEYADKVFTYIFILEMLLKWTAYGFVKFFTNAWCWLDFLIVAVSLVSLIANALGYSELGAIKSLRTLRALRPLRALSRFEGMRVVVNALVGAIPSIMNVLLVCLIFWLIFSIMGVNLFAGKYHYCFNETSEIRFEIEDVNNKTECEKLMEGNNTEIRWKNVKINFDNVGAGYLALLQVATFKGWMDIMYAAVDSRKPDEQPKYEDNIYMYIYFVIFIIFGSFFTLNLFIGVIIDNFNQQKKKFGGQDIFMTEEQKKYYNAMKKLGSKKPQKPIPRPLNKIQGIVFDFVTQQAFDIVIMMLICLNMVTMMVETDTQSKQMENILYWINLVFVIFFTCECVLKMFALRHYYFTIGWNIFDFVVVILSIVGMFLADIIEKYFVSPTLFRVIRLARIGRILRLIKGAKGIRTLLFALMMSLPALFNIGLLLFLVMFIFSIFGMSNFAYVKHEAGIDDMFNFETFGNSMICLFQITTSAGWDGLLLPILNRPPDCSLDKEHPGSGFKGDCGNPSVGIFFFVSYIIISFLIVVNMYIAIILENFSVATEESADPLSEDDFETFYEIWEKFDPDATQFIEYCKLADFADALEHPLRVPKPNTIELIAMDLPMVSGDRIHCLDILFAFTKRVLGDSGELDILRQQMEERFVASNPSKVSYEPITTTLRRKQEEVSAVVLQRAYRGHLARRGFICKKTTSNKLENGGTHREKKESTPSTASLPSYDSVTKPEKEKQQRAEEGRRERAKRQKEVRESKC
T2 sequence (Q9UQD0 whole entry N1768D): as the sequence (Q9UQD0 whole entry) above, with N1768D counted along it

Q: CCOC(F)(F)c1nnc2cnc(-c3cnc(OCC(F)(F)F)c(F)c3)cn12 [Compound 1, 3-(ethoxydifluoromethyl)-6-(5-fluoro-6-(2,2,2-trifluoroethoxy)pyridin-3-yl)-[1,2,4]triazolo[4,3-a]pyrazine] was tested. Which IC50 (human NaV1.6 [1]; hNaV1.6, ATX-II-evoked, holding −120 mV) did it give?
A: 141 nM

Q: What about the “preference for persistent INa relative to peak INa” value (human NaV1.6 [1]; hNaV1.6, all assay conditions) of the same compound?
A: preference for persistent INa

Q: What about the “Ratio to Peak INa (TB) (UDB-10 Hz)” value (human NaV1.6 [2]; hNaV1.6) of the same compound?
A: 31

Q: And the “Ratio to Pers. INa (Peak INa UDB-10 Hz / persistent INa)” value (human NaV1.6 [2]; hNaV1.6)?
A: 2

Q: What about the IC50 (human NaV1.6 [2]; hNaV1.6, 10 Hz) of the same compound?
A: 271 nM

Q: What about the “Peak INa UDB-10 Hz maximum inhibition” value (human NaV1.6 [2]; hNaV1.6, 10 Hz) of the same compound?
A: 75%

Q: What about the “use-dependent block at stimulation frequency of 10 Hz” value (human NaV1.6 [2]; hNaV1.6, 10 Hz) of the same compound?
A: concentration dependent inhibition

Q: What about the “use-dependent block at increased frequencies” value (human NaV1.6 [2]; hNaV1.6, 10 Hz, 30 Hz or 50 Hz) of the same compound?
A: significantly greater compared with CBZ

Q: And the IC50 (hNaV1.6-N1768D)?
A: 75 nM

Q: And the “latency to seizures following bilateral transauricular stimulation” value (male CD-1 mice; 3 mg/kg p.o., 30 min before test)?
A: significantly increased

Q: And the “mice that did not exhibit tonic seizures” value (male CD-1 mice; Compound 1 10 mg/kg)?
A: 11 of 12

Q: What about the “protection (increase in latency) against MES-induced tonic hindlimb seizures, dose-response” value (male CD-1 mice; Compound 1 0.3-10 mg/kg po) of the same compound?
A: dose-dependent increases in latency; also recorded: dose-dependent protection

Q: What about the ED50 (male CD-1 mice; mouse MES, read-out: Efficacy (MES) ED50, increasing latency to tonic extension seizures) of the same compound?
A: 2 mg/kg
